Assay results published in ChEMBL document CHEMBL1201862, “PubChem BioAssay data set” (2004).
Where a name gives a salt, the structure may show the parent alone.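 Results reflect a 48-hour exposure of cells in 96-well plates to compound at five concentrations. GI50 marks 50% less growth.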 Calls of active or inactive are those of the source. No stated cut-off is given here; in the data, active = GI50 up to about 1.1 µM and inactive = higher. Starred links: 1 amine or outer side, 2 acyl side, 3 side chain; linkers in the order of their positions; H or OH if unused. Residues, ends and D or L forms follow the SMILES beside them. *: point of attachment. γGlu = O=C(O)[CH](CCC(=O)[*:2])N[*:1]; NHOH = ON*

Legend:
Test in all cases: NCI anticancer screen, dose series, 48 h
BT-549 = tested on: BT-549
CAKI-1 = tested on: CAKI-1
HL-60 = tested on: HL-60
HOP-92 = tested on: HOP-92
Hs-578T = tested on: Hs-578T
K562 = tested on: K562
M14 = tested on: M14
MDA-MB-231 = tested on: MDA-MB-231
MOLT-4 = tested on: MOLT-4
Malme-3M = tested on: Malme-3M
NCI-H460 = tested on: NCI-H460
OVCAR-8 = tested on: OVCAR-8
PC-3 = tested on: PC-3
SF-539 = tested on: SF-539
SK-MEL-2 = tested on: SK-MEL-2
SK-MEL-5 = tested on: SK-MEL-5
SK-OV-3 = tested on: SK-OV-3
SN12C = tested on: SN12C
UACC-257 = tested on: UACC-257

SMILES | GI50 (BT-549) | GI50 (CAKI-1) | GI50 (HL-60) | GI50 (HOP-92) | GI50 (Hs-578T) | GI50 (K562) | GI50 (M14) | GI50 (MDA-MB-231) | GI50 (MOLT-4) | GI50 (Malme-3M) | GI50 (NCI-H460) | GI50 (OVCAR-8) | GI50 (PC-3) | GI50 (SF-539) | GI50 (SK-MEL-2) | GI50 (SK-MEL-5) | GI50 (SK-OV-3) | GI50 (SN12C) | GI50 (UACC-257)
CC(=O)O/C(=C1\C[C@H]2[C@@H]3CC=C4C[C@@H](OC(C)=O)CC[C@]4(C)[C@H]3CC[C@]2(C)C1=O)C(F)(F)F | 12.2 µM (inactive) | 9.71 µM (inactive) | 3.51 µM (inactive) | 8.24 µM (inactive) | 7 µM (inactive) | 0.977 µM (active) | 7.19 µM (inactive) | 10.4 µM (inactive) | 2.59 µM (inactive) | 3.56 µM (inactive) | 4.7 µM (inactive) | 5.18 µM (inactive) | 13.5 µM (inactive) | 7.24 µM (inactive) | 7.62 µM (inactive) | 6.08 µM (inactive) | 20.1 µM (inactive) | 8.97 µM (inactive) | 6.98 µM (inactive)
COC(=O)C(I(OS(=O)(=O)c1ccc(C)cc1)c1ccccc1)=P(c1ccccc1)(c1ccccc1)c1ccccc1 | 21.2 µM (inactive) | 40.2 µM (inactive) | 15.1 µM (inactive) | 14.7 µM (inactive) | 24.7 µM (inactive) | 12.7 µM (inactive) | 15.8 µM (inactive) | 30.1 µM (inactive) | 20.7 µM (inactive) | 7.94 µM (inactive) | 29.9 µM (inactive) | 21.2 µM (inactive) | 18.9 µM (inactive) | 19.4 µM (inactive) | 18.2 µM (inactive) | 12.2 µM (inactive) | 25.1 µM (inactive) | 43.2 µM (inactive) | 17.9 µM (inactive)
Nc1nc(-c2cccnc2)cc(-c2cc(-c3cccnc3)nc(N)n2)n1 | > 100 µM (inactive) | > 100 µM (inactive) | > 100 µM (inactive) | > 100 µM (inactive) | > 100 µM (inactive) | > 100 µM (inactive) | > 100 µM (inactive) | > 100 µM (inactive) | > 100 µM (inactive) | > 100 µM (inactive) | > 100 µM (inactive) | > 100 µM (inactive) | > 100 µM (inactive) | > 100 µM (inactive) | > 100 µM (inactive) | > 100 µM (inactive) | > 100 µM (inactive) | > 100 µM (inactive) | > 100 µM (inactive)
CCS(=O)(=O)CCn1c(=O)c2c(ncn2C)n(C)c1=O | > 100 µM (inactive) | > 100 µM (inactive) | > 100 µM (inactive) | > 100 µM (inactive) | > 100 µM (inactive) | > 100 µM (inactive) | > 100 µM (inactive) | > 100 µM (inactive) | > 100 µM (inactive) | > 100 µM (inactive) | > 100 µM (inactive) | > 100 µM (inactive) | > 100 µM (inactive) | > 100 µM (inactive) | > 100 µM (inactive) | > 100 µM (inactive) |  | > 100 µM (inactive) | 45.4 µM (inactive)
CCN(CC)c1nc(N(C)C)c2ccccc2n1 | 48.1 µM (inactive) | 58.9 µM (inactive) | 41.1 µM (inactive) | 43.3 µM (inactive) | 53.3 µM (inactive) | 10.6 µM (inactive) | 15.6 µM (inactive) | 72.4 µM (inactive) | 7.66 µM (inactive) | 41.1 µM (inactive) | 25.4 µM (inactive) | 31 µM (inactive) | 26.4 µM (inactive) | 24.3 µM (inactive) | 30.1 µM (inactive) | 15.1 µM (inactive) | 38.8 µM (inactive) | 20.9 µM (inactive) | 26.7 µM (inactive)
CCC(CCC(C)C1CCC2C3CC=C4CC(OC5OC(CO)C(O)C(O)C5O)CCC4(C)C3CCC12C)C(C)C (stereo unspecified) | > 100 µM (inactive) | > 100 µM (inactive) | > 100 µM (inactive) | > 100 µM (inactive) | > 100 µM (inactive) |  | > 100 µM (inactive) | > 100 µM (inactive) | > 100 µM (inactive) | > 100 µM (inactive) | > 100 µM (inactive) | > 100 µM (inactive) | > 100 µM (inactive) | > 100 µM (inactive) | > 100 µM (inactive) | > 100 µM (inactive) | > 100 µM (inactive) | > 100 µM (inactive) | > 100 µM (inactive)
CCOC(=O)CNC(=O)C(CCC(=O)NO)NC(=O)CCC(N)C(=O)O (stereo unspecified) (γGlu-Glu(NHOH)-Gly-OEt; configuration not given here) | > 100 µM (inactive) | > 100 µM (inactive) | > 100 µM (inactive) | > 100 µM (inactive) | > 100 µM (inactive) | > 100 µM (inactive) | > 100 µM (inactive) | > 100 µM (inactive) | > 100 µM (inactive) |  | > 100 µM (inactive) | > 100 µM (inactive) | > 100 µM (inactive) | > 100 µM (inactive) | > 100 µM (inactive) | > 100 µM (inactive) | > 100 µM (inactive) | > 100 µM (inactive) | > 100 µM (inactive)
O=C1NC(N2CCCCC2)=N/C1=C\c1cccs1 | > 100 µM (inactive) | > 100 µM (inactive) | > 100 µM (inactive) | > 100 µM (inactive) | > 100 µM (inactive) |  | > 100 µM (inactive) | > 100 µM (inactive) | > 100 µM (inactive) | > 100 µM (inactive) |  | > 100 µM (inactive) | > 100 µM (inactive) | > 100 µM (inactive) | > 100 µM (inactive) |  | > 100 µM (inactive) | > 100 µM (inactive) | > 100 µM (inactive)
CC1(C)N=C(N)N=C(N)N1c1cccc(Cl)c1 | 6.71 µM (inactive) | > 100 µM (inactive) | > 100 µM (inactive) | 42.5 µM (inactive) | > 100 µM (inactive) | 3.66 µM (inactive) | 0.877 µM (active) | 61.8 µM (inactive) |  | 9.82 µM (inactive) | 1.43 µM (inactive) |  | > 100 µM (inactive) | 4.66 µM (inactive) | > 100 µM (inactive) | 22.4 µM (inactive) | > 100 µM (inactive) | 10.3 µM (inactive) | 5.56 µM (inactive)
COc1ccc(Cc2nccc3cc(OC)c(OC)cc23)cc1OC [PAPAVERINE HYDROCHLORIDE] | 53.8 µM (inactive) | 47.3 µM (inactive) | 45 µM (inactive) | 36.5 µM (inactive) | > 100 µM (inactive) | 37.3 µM (inactive) | > 100 µM (inactive) | 47.2 µM (inactive) | 47.8 µM (inactive) |  | 19 µM (inactive) | 64.9 µM (inactive) | 74.3 µM (inactive) | 76 µM (inactive) | > 100 µM (inactive) | 16.6 µM (inactive) | > 100 µM (inactive) | > 100 µM (inactive) | > 100 µM (inactive)
COc1ccc(-c2cc(-c3ccco3)c(C#N)c(=S)n2C2OC(COC(C)=O)C(OC(C)=O)C(OC(C)=O)C2OC(C)=O)cc1 (stereo unspecified) | 2.82 µM (inactive) | 3.98 µM (inactive) | 3.98 µM (inactive) | 4.02 µM (inactive) | 3.15 µM (inactive) | 2.43 µM (inactive) | 5.27 µM (inactive) | 4.47 µM (inactive) | 12.3 µM (inactive) | 5.18 µM (inactive) | 5.11 µM (inactive) | 3.78 µM (inactive) | 4.07 µM (inactive) | 1.85 µM (inactive) |  | 10.6 µM (inactive) | 13.8 µM (inactive) | 10.1 µM (inactive) | 
O=C1OCC2OC(=O)c3cc(O)c(O)c(O)c3-c3c(O)c(O)c(O)c4c3C(=O)OC(C2OC(=O)c2cc(O)c(O)c(O)c2-c2c1cc(O)c(O)c2O)C1OC(=O)C2C4=C(O)C(=O)C23Oc2cc(O)c4c(c2[C@H]13)O[C@H](c1ccc(O)c(O)c1)[C@@H](O)C4 (stereo partly specified) | 19.3 µM (inactive) | 16.2 µM (inactive) | 18.5 µM (inactive) | 25.9 µM (inactive) | 28.1 µM (inactive) | 26 µM (inactive) | 12.6 µM (inactive) | 18.9 µM (inactive) | 22.6 µM (inactive) | 23.1 µM (inactive) | 20.5 µM (inactive) | 22.2 µM (inactive) | 38.5 µM (inactive) |  | 20.2 µM (inactive) | 16 µM (inactive) | 44.1 µM (inactive) | 18 µM (inactive) | 29 µM (inactive)
CC(=O)Nc1nc(Cl)cc(NCC2(CO)CCC2)n1 | > 100 µM (inactive) | > 100 µM (inactive) | > 100 µM (inactive) | > 100 µM (inactive) | > 100 µM (inactive) | > 100 µM (inactive) | > 100 µM (inactive) | > 100 µM (inactive) | > 100 µM (inactive) | > 100 µM (inactive) | > 100 µM (inactive) | > 100 µM (inactive) | > 100 µM (inactive) |  | > 100 µM (inactive) | > 100 µM (inactive) | > 100 µM (inactive) | > 100 µM (inactive) | > 100 µM (inactive)
O=C1C(O)=C(C(CCc2ccccc2)C2=C(O)C(=O)c3ccccc3C2=O)C(=O)c2ccccc21 | > 100 µM (inactive) | > 100 µM (inactive) | 1.1 µM (active) | 40 µM (inactive) | 5.32 µM (inactive) |  | 11.5 µM (inactive) | 66.8 µM (inactive) |  | 4.27 µM (inactive) | 3.61 µM (inactive) | 57.1 µM (inactive) | 68.7 µM (inactive) | 58.5 µM (inactive) | 35.5 µM (inactive) | 4.08 µM (inactive) | > 100 µM (inactive) | 56 µM (inactive) | 13.4 µM (inactive)
